In publication PMC8157322, “Gd(III)–Pt(IV) theranostic contrast agents for tandem MR imaging and chemotherapy” (Chemical Science, 2020):

Key:
[1] = Stability in aqueous media monitored by HPLC-MS; type: physicochemical
Experimental: (§1) To ensure both agents remain stable in aqueous media under various conditions, they were dissolved in PBS, two types of cell culture media (MEM and RPMI-1640), pH 5 H2O, and porcine live esterase (PLE) in PBS and monitored over time by HPLC-MS. […]
(§2) Stability of GP1 and GP2 in various aqueous media. Aliquots of GP1 and GP2 were prepared from a stock with known mass checked by ICP-MS. An aliquot of each was dissolved in H2O and analyzed by HPLC-MS using an Atlantis C18 column (4.6 × 250 mm, 5 μm) and the following method: MeCN held at 0% for 3 min followed by a 15 min ramp to 100% MeCN (GP1 retention time: 10.9 min, GP2 retention time: 11.6 min). Aliquots of both were additionally dissolved in PBS, MEM, RPMI-1640, pH 5 H2O, PBS with 10 units/mL porcine liver esterase, 5 mM glutathione, and 5 mM sodium ascorbate, incubated in a shaker at 37 °C, and were analyzed by HPLC-MS at different time points using the same method. At each time point, the area of the peak of GP1 or GP2 was determined by integration and compared to the area of the peaks in […]

[2] = tested on: porcine liver esterase (PLE); test: Stability in porcine liver esterase in PBS (HPLC-MS); type: in vitro ADME; settings: PBS with 10 units/mL porcine liver esterase, 37 °C
Experimental: as §1, §2

A2780 cells = test: Cell viability assay (CellTiter-Glo 2.0); type: cell-based; settings: A2780, 48 h incubation
Experimental: (§3) To assess the cytotoxicity of GP1 and GP2in vitro, cell viability assays were performed to determine the IC50 concentrations in three cancer cell lines (A2780, HeLa, and MCF-7). Table 2 summarizes the IC50 concentrations of both agents compared to those of cisplatin and carboplatin. […] For all cell lines, GP1 was less toxic than cisplatin but followed the same trend of highest toxicity in A2780 cells and least toxic in MCF-7 cells. GP1 releases cisplatin intracellularly, therefore the apparent difference in toxicity of the two is likely due to decreased cell permeability of GP1 caused by the Gd(III) complex. However, because GP1 is inert in the extracellular matrix, higher doses can be safely administered to account for the decreased cell permeability. […]
(§4) lines were grown in a humidified incubator at 37 °C and 5% CO2 and were harvested using 0.25% TrypLE. Cells were grown for 24 hours after plating before each experiment. All solutions were filtered through […] sterile filters before use.
(§5) Viability Assays. A2780, HeLa, and MCF-7 cells were plated at a density of 3,000 cells per well (100 µL) in an opaque white 96-well plate. Cells were dosed with 100 µL of solutions of GP1, GP2, cisplatin, or carboplatin in MEM and incubated for 48 hours (GP1 or cisplatin) or 72 hours (GP2 or carboplatin). After incubation, 50 µL CellTiter-Glo 2.0 (Promega, Madison, WI) was added to each well and the assay was carried out following the manufacturer’s protocol.
(§6) Luminescence of the wells was measured using a Synergy H1 microplate reader (BioTek, Winooski, VT). Viability was determined by comparing luminescence readings of the cells treated with agent to untreated control cells. […]

HeLa cells = test: Cell viability assay (CellTiter-Glo 2.0); type: cell-based; settings: 48 h incubation
Experimental: as §3, §4, §5, §6

MCF-7 cells = test: Cell viability assay (CellTiter-Glo 2.0); type: cell-based; settings: MCF-7, 48 h incubation
Experimental: as §3, §4, §5, §6

[NH2][Pt]([NH2])([OH])([Cl])([Cl])[O]C(=O)CCCCCN1CCN2CCN3CCN(CC1)CC(=O)[O][Gd]([O]C(=O)C2)[O]C(=O)C3 [GP1]
Agent intact in MEM ([1]; MEM, 37 °C, at 48 hours): ≥ 92%
Stability in PBS ([1]; PBS, 37 °C, over 48 hours): completely stable
Agent reduced to Pt(II) in RPMI-1640 ([1]; RPMI-1640 (0.003 mM GSH), 37 °C, within 48 hours): 33%
Agent intact in RPMI-1640 ([1]; RPMI-1640, 37 °C, at 6 hours): ≥ 96%
Stability in pH 5 H2O ([1]; pH 5 H2O, 37 °C, over 48 hours): completely stable
Decrease in stability in presence of PLE [2]: ~10%
IC50 (A2780 cells): 29.8 ± 2.5 µM
IC50 (HeLa cells): 49.3 ± 1.3 µM
IC50 (MCF-7 cells): 113 ± 4 µM
